Measurements from patent US20250332173A1, “COMPOUNDS AND METHODS FOR MODULATING NUCLEIC ACID SPLICING” (REMIX THERAPEUTICS INC., priority 2021, published 2025).
Where two headings read alike, the source gives them in different places.

Legend:
Format in all cases: cell-based, human
HTT mRNA = assay: RT-qPCR splicing assay, HTT canonical junction (CJ) and alternative junction (AJ) mRNA; settings: Homo sapiens; for AC50: increase in HTT alternative junction (AJ) mRNA, read-out: HTT AJ AC50
Outline: (§1)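 A673 cells (normalized to PPIA) or K562 cells (normalized to GAPDH or GUSB) were treated 24 h at 37 °C with an 11-point 3-fold dilution series, top 10 uM, DMSO ≤0.25%. Cell lysates went to one-step RT-qPCR measuring canonical- and alternative-junction MYB or HTT transcripts.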

MYB mRNA = assay: RT-qPCR splicing assay, MYB canonical junction (CJ) and alternative junction (AJ) mRNA; settings: Homo sapiens; for AC50: increase in MYB alternative junction (AJ) mRNA, read-out: MYB AJ AC50
Outline: as §1

Target C = assay: HiBiT protein abundance assay, Target C (Promega Nano-Glo HiBiT Lytic Detection System, knock-in K562 cell line); settings: Homo sapiens, K562, 24 h, HiBiT K562 cell line, 24 hours, top dose 10 μM; read-out: Effect on protein abundance, Target C (IC50 category)
Outline: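 Knock-in K562 cells carrying HiBiT-tagged Target C, 10,000 per well, treated 24 h at 37 °C with 10-point threefold dilutions (top 10 μM final, ≤0.25% DMSO). Lytic HiBiT luminescence read; response normalised to unmodified K562 and DMSO controls, four-parameter fit interpolated at 50% for IC50.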

[1] = decrease in HTT canonical junction (CJ) mRNA, RT-qPCR, read-out: HTT CJ IC50
[2] = Table 5 panel, canonical junction qPCR, compound concentration having 50% response in CJ decrease, read-out: HTT IC50 (decrease in CJ mRNA levels)
[3] = Table 5 panel, canonical junction qPCR, compound concentration having 50% response in CJ decrease, read-out: MYB IC50 (decrease in CJ mRNA levels)
[4] = decrease in MYB canonical junction (CJ) mRNA, RT-qPCR, read-out: MYB CJ IC50
[5] = canonical junction qPCR panel, Table 5, read-out: HTT (decrease in CJ mRNA levels, IC50)
[6] = canonical junction qPCR panel, Table 5, read-out: MYB (decrease in CJ mRNA levels, IC50)

SMILES	IC50 (HTT mRNA; [1]) [µM]	IC50 (HTT mRNA; [2]) [µM]	IC50 (MYB mRNA; [3]) [µM]	IC50 (MYB mRNA; [4]) [µM]	IC50 (Target C) [µM]	IC50 (HTT mRNA; [5]) [µM]	IC50 (MYB mRNA; [6]) [µM]	AC50 (HTT mRNA; RT-qPCR) [µM]	AC50 (MYB mRNA; RT-qPCR) [µM]
Cc1cc(-c2cc3ccn(C4CCN(C5CC5)CC4)c(=O)c3cn2)cc2cn(C)nc12 [Compound 1208, 2-(1-cyclopropylpiperidin-4-yl)-6-(2,7-dimethyl-2H-indazol-5-yl)-2,7-naphthyridin-1(2H)-one]	> 10	> 10	1 to 10	1 to 10	> 10	–	–	> 10	1 to 10
Cc1cc(-c2cc3ccn(C4CCN(CCO)CC4)c(=O)c3cn2)cc2cn(C)nc12 [Compound 1210, 6-(2.7-dimethyl-2H-indazol-5-yl)-2-(1-(2-hydroxyethyl)piperidin-4-yl)-2,7-naphthyridin-1(2H)-one]	> 10	> 10	1 to 10	0.1 to 1	> 10	–	–	> 10	1 to 10
Cc1cn2cc(-c3cc4ccn(C5CCNC5)c(=O)c4cn3)cc(C#N)c2n1 (stereo not shown) [Compound 1214]	> 10	> 10	1 to 10	1 to 10	> 10	–	–	> 10	1 to 10
Cc1cn2cc(-c3ncc4c(=O)n(C5CCNC5)ccc4n3)cc(F)c2n1 (stereo not shown) [Compound 1215]	> 10	> 10	0.1 to 1	1 to 10	1 to 10	–	–	> 10	0.1 to 1
COc1c(-c2cc3ccn(C4CCNCC4)c(=O)c3cn2)cc2cn(C)nc2c1F [Compound 1219]	1 to 10	1 to 10	1 to 10	1 to 10	1 to 10	–	–	1 to 10	1 to 10
Cc1c(O)c(-c2ncc3c(=O)n(C4CCNC4)ccc3n2)cc2cn(C)nc12 (stereo not shown) [Compound 1222]	> 10	1 to 10	0.1 to 1	0.1 to 1	> 10	–	–	1 to 10	0.1 to 1
Cn1cc2cc(-c3ncc4c(=O)n(C5CCNC5)ccc4n3)c(O)c(F)c2n1 (stereo not shown) [Compound 1223]	1 to 10	1 to 10	0.1 to 1	0.1 to 1	1 to 10	–	–	1 to 10	0.1 to 1
Cc1cn2cc(-c3ncc4c(=O)n(C5CCNC5)ccc4n3)c(O)c(C)c2n1 (stereo not shown) [Compound 1227]	> 10	> 10	1 to 10	1 to 10	> 10	–	–	> 10	1 to 10
Cc1cn2cc(-c3ncc4c(=O)n([C@@H]5CCNC5)ccc4n3)cc(F)c2n1 [Compound 1228]	> 10	> 10	0.1 to 1	1 to 10	1 to 10	–	–	> 10	0.1 to 1
Cc1cn2cc(-c3ccc4c(=O)n(C5CCNCC5)ccc4n3)nc(C)c2n1 [Compound 1238, 2-(2,8-dimethylimidazo[1,2-a]pyrazin-6-yl)-6-(piperidin-4-yl)-1,6-naphthyridin-5(6H)-one]	> 10	–	–	1 to 10	> 10	> 10	> 10	> 10	> 10
Cc1cn2cc(-c3ccc4c(=O)n(C5CCNCC5)ccc4n3)c(O)cc2n1 [Compound 1240]	> 10	–	–	1 to 10	> 10	> 10	1 to 10	> 10	1 to 10
COc1c(-c2ccc3c(=O)n(C4CCNCC4)ccc3n2)cc2cn(C)nc2c1C [Compound 1243]	> 10	–	–	> 10	> 10	> 10	> 10	> 10	> 10
Cc1cn2cc(-c3ccc4c(=O)n(C5CCNCC5)ccc4n3)cc(C#N)c2n1 [Compound 1297]	0.1 to 1	–	–	0.1 to 1	0.1 to 1	0.1 to 1	0.1 to 1	0.1 to 1	0.1 to 1
Cc1cn2cc(-c3ccc4c(=O)n(C5CCNC5)ccc4n3)cc(F)c2n1 (stereo not shown) [Compound 1299]	> 10	–	–	1 to 10	> 10	> 10	0.1 to 1	> 10	0.1 to 1
Cc1c(O)c(-c2ncc3c(=O)n(C4CCC(N)CC4)ccc3n2)cc2cn(C)nc12 (stereo not shown) [Compound 1300, 6-((1s,4s)-4-aminocyclohexyl)-2-(6-hydroxy-2,7-dimethyl-2H-indazol-5-yl)pyrido[4,3-d]pyrimidin-5(6H)-one]	1 to 10	–	–	0.1 to 1	1 to 10	0.1 to 1	0.1 to 1	0.1 to 1	0.1 to 1
Cc1cn2cc(-c3ncc4c(=O)n(C5CCNCC5)ccc4n3)cc(C#N)c2n1 [Compound 1301]	0.1 to 1	–	–	0.1 to 1	0.1 to 1	0.1 to 1	0.1 to 1	0.1 to 1	0.1 to 1

Further lines, with some results ahead:

IC50 (HTT mRNA; [1]) [µM]	IC50 (HTT mRNA; [2]) [µM]	IC50 (MYB mRNA; [3]) [µM]	IC50 (MYB mRNA; [4]) [µM]	IC50 (Target C) [µM]	IC50 (HTT mRNA; [5]) [µM]	IC50 (MYB mRNA; [6]) [µM]	SMILES	AC50 (HTT mRNA; RT-qPCR) [µM]	AC50 (MYB mRNA; RT-qPCR) [µM]
0.1 to 1	0.1 to 1	0.1 to 1	0.1 to 1	0.1 to 1	–	–	Cc1cc(-c2cc3ccn(C4CCN(C5COC5)CC4)c(=O)c3cn2)cc2cn(C)nc12 [Compound 1209, 6-(2,7-dimethyl-2H-indazol-5-yl)-2-(1-(oxetan-3-yl)piperidin-4-yl)-2,7-naphthyridin-1(2H)-one-1]	0.1 to 1	0.1 to 1
0.1 to 1	0.1 to 1	0.1 to 1	< 0.1	0.1 to 1	–	–	Cn1cc2cc(-c3ncc4c(=O)n(C5CCNCC5)ccc4n3)c(O)cc2n1 [Compound 1211]	0.1 to 1	0.1 to 1
0.1 to 1	0.1 to 1	< 0.1	0.1 to 1	0.1 to 1	–	–	Cn1cc2cc(-c3ncc4c(=O)n(C5CCNCC5)ccc4n3)cc(F)c2n1 [Compound 1212, 2-(7-fluoro-2-methyl-2H-indazol-5-yl)-6-(piperidin-4-yl)pyrido[4,3-d]pyrimidin-5(6H)-one]	0.1 to 1	< 0.1
0.1 to 1	0.1 to 1	0.1 to 1	0.1 to 1	0.1 to 1	–	–	Cc1cn2cc(-c3ncc4c(=O)n(C5CCNC5)ccc4n3)cc(C#N)c2n1 (stereo not shown) [Compound 1221]	0.1 to 1	0.1 to 1
0.1 to 1	0.1 to 1	0.1 to 1	0.1 to 1	0.1 to 1	–	–	Cc1cn2cc(-c3ncc4c(=O)n(C5CCNCC5)ccc4n3)c(O)c(C)c2n1 [Compound 1225]	0.1 to 1	0.1 to 1
0.1 to 1	–	–	0.1 to 1	0.1 to 1	0.1 to 1	0.1 to 1	Cn1cc2cc(-c3ccc4c(=O)n(C5CCNCC5)ccc4n3)cc(F)c2n1 [Compound 1231]	0.1 to 1	0.1 to 1
0.1 to 1	–	–	< 0.1	< 0.1	0.1 to 1	< 0.1	Cc1cn2cc(-c3ccc4c(=O)n(C5CCNCC5)ccc4n3)cc(C)c2n1 [Compound 1241, 2-(2,8-dimethylimidazo[1,2-a]pyridin-6-yl)-6-(piperidin-4-yl)-1,6-naphthyridin-5(6H)-one]	0.1 to 1	< 0.1
< 0.1	–	–	< 0.1	< 0.1	< 0.1	< 0.1	Cn1cc2cc(-c3ccc4c(=O)n(C5CCNC6(CC6)C5)ccc4n3)c(O)cc2n1 (stereo not shown) [Compound 1242]	< 0.1	< 0.1
0.1 to 1	–	–	< 0.1	0.1 to 1	0.1 to 1	< 0.1	Cn1cc2cc(-c3ccc4c(=O)n([C@@H]5CCNC6(CC6)C5)ccc4n3)c(O)cc2n1 [Compound 1246]	0.1 to 1	< 0.1
0.1 to 1	–	–	< 0.1	0.1 to 1	< 0.1	< 0.1	Cc1c(O)c(-c2ccc3c(=O)n(C4CCNCC4)cc(C)c3n2)cc2cn(C)nc12 [Compound 1284]	< 0.1	< 0.1
< 0.1	–	–	< 0.1	< 0.1	< 0.1	< 0.1	Cc1cn(C2CCNCC2)c(=O)c2ccc(-c3cc4cn(C)nc4c(F)c3O)nc12 [Compound 1285]	< 0.1	< 0.1
0.1 to 1	–	–	< 0.1	0.1 to 1	< 0.1	< 0.1	Cn1cc2nc(-c3ccc4c(=O)n(C5CCNCC5)ccc4n3)c(O)cc2n1 [Compound 1296]	< 0.1	< 0.1
